Experimental data from patent US6355799B1, “Substituted benzene compounds, process for their preparation, and herbicidal and defoliant compositions containing them” (ISK Americas Incorporated, priority 1997, dated 2002).
Where two headings read alike, the source gives them in different places.

Experiments:
Type in all cases: in vivo
[1] = test system: redroot pigweed (Amaranthus retroflexus, AMARE); assay: Pre-emerge test, greenhouse herbicide activity screening; details: Amaranthus retroflexus, pre-emergence, 336 h, read-out: Pre-emerge Herbicidal Activity AMARE
How it was run: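 Compounds in acetone were track-sprayed at 15-1000 g ai/ha (187 l/ha) on sandy loam pots: pre-emerge one day after seeding, post-emerge at 2-3 leaf stage with 0.25% v/v non-ionic surfactant. Phytotoxicity was rated 14 days later on a 0 (no damage) to 100 (complete death) scale.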

[2] = test system: barnyardgrass (Echinochloa crus-galli, ECHCG); assay: as above; details: Echinochloa crus-galli, pre-emergence, 336 h, read-out: Pre-emerge Herbicidal Activity ECHCG
How it was run: (§1)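 Rating: 0–100 visual injury, 14 DAA. Application: acetone, 187 l/ha, 15–1000 g ai/ha, flat-fan track sprayer with nozzle 40–45 cm above soil or canopy. Post-emerge runs used 0.25% v/v surfactant on 2–3 leaf plants.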

[3] = test system: green foxtail (Setaria viridis, SETVI); assay: as above; details: Setaria viridis, pre-emergence, 336 h, read-out: Pre-emerge Herbicidal Activity SETVI
How it was run: as §1

[4] = test system: ivyleaf morningglory (Ipomoea hederacea, IPOHE); assay: as above; details: Ipomoea, pre-emergence, 336 h, read-out: Pre-emerge Herbicidal Activity IPOHE
How it was run: as §1

[5] = test system: johnsongrass (Sorghum halepense, SORHA); assay: as above; details: Sorghum halepense, pre-emergence, 336 h, read-out: Pre-emerge Herbicidal Activity SORHA
How it was run: as §1

[6] = test system: lambsquarters (Chenopodium album, CHEAL); assay: as above; details: Chenopodium album, pre-emergence, 336 h, read-out: Pre-emerge Herbicidal Activity CHEAL
How it was run: as §1

[7] = test system: large crabgrass (Digitaria sanguinalis, DIGSA); assay: as above; details: Digitaria sanguinalis, pre-emergence, 336 h, read-out: Pre-emerge Herbicidal Activity DIGSA
How it was run: as §1

[8] = test system: sicklepod (Cassia obtusifolia, CASOB); assay: as above; details: Senna obtusifolia, pre-emergence, 336 h, read-out: Pre-emerge Herbicidal Activity CASOB
How it was run: as §1

[9] = test system: velvetleaf (Abutilon theophrasti, ABUTH); assay: as above; details: Abutilon theophrasti, pre-emergence, 336 h, read-out: Pre-emerge Herbicidal Activity ABUTH
How it was run: as §1

[10] = test system: green foxtail (Setaria viridis, SETVI); assay: Post-emerge test, greenhouse herbicide activity screening; details: post-emerge; for phytotoxicity rating SETVI: 14 days after application, rating scale 0-100
How it was run: as §1

[11] = test system: ivyleaf morningglory (Ipomoea hederacea, IPOHE); assay: as above; details: post-emerge; for phytotoxicity rating IPOHE: 14 days after application, rating scale 0-100
How it was run: as §1

[12] = test system: johnsongrass (Sorghum halepense, SORHA); assay: as above; details: post-emerge; for phytotoxicity rating SORHA: 14 days after application, rating scale 0-100
How it was run: as §1

[13] = test system: large crabgrass (Digitaria sanguinalis, DIGSA); assay: as above; details: post-emerge; for phytotoxicity rating DIGSA: 14 days after application, rating scale 0-100
How it was run: as §1

[14] = test system: sicklepod (Cassia obtusifolia, CASOB); assay: as above; details: post-emerge; for phytotoxicity rating CASOB: 14 days after application, rating scale 0-100
How it was run: as §1

[15] = pre-emerge, rate 63 g ai/ha, phytotoxicity rating 0-100 at 14 days after application
[16] = pre-emerge, rate 250 g ai/ha, phytotoxicity rating 0-100 at 14 days after application
[17] = 63 g ai/ha, phytotoxicity rating 0-100, 14 days after application
[18] = 250 g ai/ha, phytotoxicity rating 0-100, 14 days after application

COc1c(Cl)cc(F)c(-c2nn(C)c(C(F)(F)F)c2Cl)c1NC(=O)C=Cc1ccccc1 [Compound 7-15]
pest or weed control at 63 g/ha [1, 15]: 80% | pest or weed control at 250 g/ha [1, 16]: 100% | pest or weed control at 63 g/ha [2, 15]: 0% | pest or weed control at 250 g/ha [2, 16]: 10% | pest or weed control at 63 g/ha [3, 15]: 0% | pest or weed control at 250 g/ha [3, 16]: 60% | pest or weed control at 63 g/ha [4, 15]: 0% | pest or weed control at 250 g/ha [4, 16]: 50% | pest or weed control at 63 g/ha [5, 15]: 0% | pest or weed control at 250 g/ha [5, 16]: 20% | pest or weed control at 63 g/ha [6, 15]: 100% | pest or weed control at 250 g/ha [6, 16]: 100% | pest or weed control at 63 g/ha [7, 15]: 0% | pest or weed control at 250 g/ha [7, 16]: 60% | pest or weed control at 63 g/ha [8, 15]: 0% | pest or weed control at 250 g/ha [8, 16]: 10% | pest or weed control at 63 g/ha [9, 15]: 40% | pest or weed control at 250 g/ha [9, 16]: 90% | pest or weed control at 63 g/ha ([10]; Setaria viridis, post-emergence, 336 h, 63 g ai/ha, phytotoxicity rating 0-100 at 14 days after application, read-out: Post-emerge Herbicidal Activity SETVI): 10% | pest or weed control at 250 g/ha ([10]; Setaria viridis, post-emergence, 336 h, 250 g ai/ha, phytotoxicity rating 0-100 at 14 days after application, read-out: Post-emerge Herbicidal Activity SETVI): 10% | pest or weed control at 63 g/ha ([11]; Ipomoea, post-emergence, 336 h, 63 g ai/ha, phytotoxicity rating 0-100 at 14 days after application, read-out: Post-emerge Herbicidal Activity IPOHE): 70% | pest or weed control at 250 g/ha ([11]; Ipomoea, post-emergence, 336 h, 250 g ai/ha, phytotoxicity rating 0-100 at 14 days after application, read-out: Post-emerge Herbicidal Activity IPOHE): 70% | pest or weed control at 63 g/ha ([12]; Sorghum halepense, post-emergence, 336 h, 63 g ai/ha, phytotoxicity rating 0-100 at 14 days after application, read-out: Post-emerge Herbicidal Activity SORHA): 0% | pest or weed control at 250 g/ha ([12]; Sorghum halepense, post-emergence, 336 h, 250 g ai/ha, phytotoxicity rating 0-100 at 14 days after application, read-out: Post-emerge Herbicidal Activity SORHA): 0% | pest or weed control at 63 g/ha ([13]; Digitaria sanguinalis, post-emergence, 336 h, 63 g ai/ha, phytotoxicity rating 0-100 at 14 days after application, read-out: Post-emerge Herbicidal Activity DIGSA): 0% | pest or weed control at 250 g/ha ([13]; Digitaria sanguinalis, post-emergence, 336 h, 250 g ai/ha, phytotoxicity rating 0-100 at 14 days after application, read-out: Post-emerge Herbicidal Activity DIGSA): 0% | pest or weed control at 63 g/ha ([14]; Senna obtusifolia, post-emergence, 336 h, 63 g ai/ha, phytotoxicity rating 0-100 at 14 days after application, read-out: Post-emerge Herbicidal Activity CASOB): 40% | pest or weed control at 250 g/ha ([14]; Senna obtusifolia, post-emergence, 336 h, 250 g ai/ha, phytotoxicity rating 0-100 at 14 days after application, read-out: Post-emerge Herbicidal Activity CASOB): 80%

CNC(=O)N(C(=O)NC)c1c(OC)c(Cl)cc(F)c1-n1c(=O)cc(C(F)(F)F)n(C)c1=O [Compound 3-1, 3-[2-bis(methylaminocarbonyl)amino-4-chloro-6-fluoro-3-methoxyphenyl]-1-methyl-6-trifluoromethyl-2,4(1H, 3H)-pyrimidinedione]
pest or weed control at 63 g/ha [1, 17]: 0% | pest or weed control at 250 g/ha [1, 18]: 30% | pest or weed control at 63 g/ha [2, 17]: 0% | pest or weed control at 250 g/ha [2, 18]: 0% | pest or weed control at 63 g/ha [3, 17]: 0% | pest or weed control at 250 g/ha [3, 18]: 0% | pest or weed control at 63 g/ha [4, 17]: 0% | pest or weed control at 250 g/ha [4, 18]: 0% | pest or weed control at 63 g/ha [5, 17]: 0% | pest or weed control at 250 g/ha [5, 18]: 0% | pest or weed control at 63 g/ha [6, 17]: 20% | pest or weed control at 250 g/ha [6, 18]: 80% | pest or weed control at 63 g/ha [7, 17]: 0% | pest or weed control at 250 g/ha [7, 18]: 0% | pest or weed control at 63 g/ha [8, 17]: 0% | pest or weed control at 250 g/ha [8, 18]: 0% | pest or weed control at 63 g/ha [9, 17]: 0% | pest or weed control at 250 g/ha [9, 18]: 20% | phytotoxicity rating SETVI ([10]; 63 g ai/ha): 0 | phytotoxicity rating SETVI ([10]; 250 g ai/ha): 0 | phytotoxicity rating IPOHE ([11]; 63 g ai/ha): 0 | phytotoxicity rating IPOHE ([11]; 250 g ai/ha): 30 | phytotoxicity rating SORHA ([12]; 63 g ai/ha): 0 | phytotoxicity rating SORHA ([12]; 250 g ai/ha): 0 | phytotoxicity rating DIGSA ([13]; 63 g ai/ha): 0 | phytotoxicity rating DIGSA ([13]; 250 g ai/ha): 0 | phytotoxicity rating CASOB ([14]; 63 g ai/ha): 0 | phytotoxicity rating CASOB ([14]; 250 g ai/ha): 0
